Tested on: NASH mice
Test: Oil Red staining of liver, fat accumulation area % (Test Example 3)
Assay type: in vivo
Conditions: for Fat accumulation area %, Significant difference: Student-t, 5% level
Source text: A solid diet CE-2 (lipid 4.6% by weight, manufactured by CLEA Japan, Inc.) was used as a normal diet. A solid diet, High Fat Diet 32 (lipid 32.0% by weight, sucrose 6.75% by weight, manufactured by CLEA Japan, Inc.), was used as a sucrose-containing high fat diet. As a maltitol-containing high-fat diet, a special diet (lipid 32.0% by weight, maltitol 6.08% by weight; manufactured by CLEA Japan, Inc.) obtained by replacing the total amount (6.75% by weight) of sucrose in a solid diet, High Fat Diet 32, with powdered maltitol (Whole Crystalline Maltitol Ueno 60M (purity of maltitol: 90%), manufactured by Ueno Fine Chemicals Industry Ltd.) was used. Sodium hypochlorite (PURELOX-S, manufactured by OYALOX Co., Ltd.) was added to pure water prepared by Elix-UV pure water producing apparatus, to a final concentration of 0.00009%, so that pure water for use in the test was obtained. An aqueous maltitol solution was prepared by dissolving powdered maltitol (Whole Crystalline Maltitol Ueno 60M (purity of maltitol: 90%), manufactured by Ueno Fine Chemicals Industry Ltd.) in pure water to a concentration of 1.8% (weight/volume). The purity of maltitol in the aqueous maltitol solution was 1.62%. Twenty-one female SPF mice (C57BL/6J, produced by CLEA Japan, Inc.) on day 14 of pregnancy were purchased and acclimation was performed. All animals were allowed to make a natural birth and a born male was used to produce a model. In addition, the weaning was at 4 weeks after birth. Streptozotocin (Sigma-Aldrich Japan K.K.) was adjusted to a concentration of 10 mg/mL with a physiological saline solution (manufactured by Otsuka Pharmaceutical Factory, Inc.) and the solution was subcutaneously administered once to the back of 2-day-old male mice at a dose of 20 μL/mouse (200 μg/mouse). Afterwards, the mother animal took care of the baby until weaning. The weaning was on day 28±2 after birth. After the weaning, a normal diet was supplied ad libitum to animals receiving no streptozotocin (normal mice (group S1 and group 1)), and a sucrose-containing high fat diet was supplied ad libitum to animals receiving streptozotocin (NASH mice (group S2, group 2, group 3, and group 4). A normal diet was supplied ad libitum to normal mice (group 1). With respect to NASH mice, a sucrose-containing high fat diet was supplied ad libitum to the sucrose group (group 2), and a maltitol-containing high fat diet was supplied ad libitum to the maltitol-low dose group (group 3) and the maltitol-high dose group (group 4). An aqueous maltitol solution was supplied ad libitum only to the maltitol-high dose group (group 4) of 5 to 8 weeks of age, and pure water was supplied ad libitum to the groups other than group 4 of 5 to 8 weeks of age. Six male animals per group were assigned to groups S1 and S2, reared up to 5 weeks of age, and then necropsied. Eight male animals per group were assigned to groups 1, 2, 3 and 4, reared up to 8 weeks of age, and then necropsied. At scheduled necropsy of the animals of 5 or 8 weeks of age, all individuals were anesthetized with diethyl ether (manufactured by Sigma-Aldrich Japan K.K.) and a needle through which heparin sodium (Novo Heparin Injection 1000, manufactured by Mochida Pharmaceutical Co., Ltd.) had been passed was punctured to the heart to aspirate the whole blood, leading to euthanasia, followed by harvest of the organ. With respect to animals of 5 or 8 weeks of age at scheduled necropsy, the left outer lobe of the liver was immersed in a neutral formalin solution (manufactured by Wako Pure Chemical Industries, Ltd.) for fixation at room temperature for 24 hours, subjected to sucrose substitution, embedded in a tray for cryosection (CRYO DISH manufactured by Shoei Works Co., Ltd.) filled with O.C.T. compound (manufactured by Sakura Finetek Japan Co., Ltd.), immediately frozen with liquid nitrogen, and preserved at −80° C. for oil red staining. […]

Row | Compound | Fat accumulation area %, Significant difference (Group 2 (sucrose) at 8 weeks vs group S2 at 5 weeks of age) | Fat accumulation area % (Oil Red staining), mean ± standard deviation (Group 2, sucrose group: HFD32 (sucrose 6.75%) + pure water, eight weeks of age) [%] | Fat accumulation area %, Significant difference (Group 3 (low-dose maltitol) at 8 weeks vs group S2 at 5 weeks of age) | Fat accumulation area % (Oil Red staining), mean ± standard deviation (Group 3, low-dose maltitol: HFD32-M (maltitol 6.08%) + pure water from 5 to 8 weeks of age) [%] | Fat accumulation area %, Significant difference (Group 4 (high-dose maltitol) at 8 weeks vs group S2 at 5 weeks of age) | Fat accumulation area % (Oil Red staining), mean ± standard deviation (Group 4, high-dose maltitol: HFD32-M (maltitol 6.08%) + aqueous maltitol solution 1.62% from 5 to 8 weeks of age) [%]
1 | OC[C@H]1O[C@@](CO)(O[C@H]2O[C@H](CO)[C@@H](O)[C@H](O)[C@H]2O)[C@@H](O)[C@@H]1O [sucrose, reference compound] | a significant difference was not observed and No | 34.7 ± 8.4 | – | – | – | –
2 | OC[C@@H](O)[C@@H](O[C@H]1O[C@H](CO)[C@@H](O)[C@H](O)[C@H]1O)[C@H](O)[C@@H](O)CO [maltitol] | – | – | significantly low and Yes | 32.7 ± 7.6 | significantly low and Yes | 28.6 ± 5.5

— patent US9155752B2, “Liver function-improving agent” (UENO FINE CHEMICALS INDUSTRY, LTD., priority 2012, dated 2015)
